# Entries after “also recorded” stand apart in the source; their conditions may differ.
# Key:
# binding of p53 to XPB = target: T1, binding of p53 to XPB (Homo sapiens, UniProt P04637); assay: Competitive inhibition by peptides of XPB binding to GST-p53-WT; details: peptide preincubated with GST-p53-WT 30 min on ice, 12-596 nM
# T1 construct: was used for in vitro translation of full length XPB protein; made in house; host or cells: GST-p53-WT: Escherichia coli; XPB: cell-free in vitro transcription/translation (Promega)
# Method: FIG. 4. Peptides corresponding to helicase motif III of XPB and the C-terminus of p53 prevent XPB from binding to GST-p53. Four different synthetic peptides were preincubated with 2 μg GST-p53WT for 30 minutes on ice before the addition of ^35S-labeled, in vitro-translated XPB for 60 min at RT. Peptide #464 corresponds to residues 464-478 of XPB (lanes 2-4; 12, 120, and 596 nM), peptide #479 corresponds to residues 479-493 of XPB (lanes 5-7; 12, 116, and 578 nM), peptide #99 corresponds to residues 100-115 of HBX (lanes 8-9; 111 and 554 nM), and peptide #p53cp corresponds to residues 367-387 of p53 (lanes 11-12; 85 and 424 nM).
# (§1) The helicase motif III in XPB and the C-terminal region of p53 are both important regions that are involved in the binding of p53 to XPB. […] Incubation conditions for the binding assays and analysis of binding was then carried out as described in Example 2 herein.
# [1] = test system: normal primary human fibroblasts (C5RO); assay: Apoptosis after microinjection of p53 expression vectors; format: cell-based; details: for effect of coinjected mutant p53 on induction of apoptosis by wt p53: expression vectors for wt and mutant p53 coinjected into normal human fibroblasts; for % apoptotic cells: normal fibroblasts (C5RO), of p53 positive cells; for % apoptotic cells / p53 localization (% cells) both / p53 localization (% cells) cytoplasmic / p53 localization (% cells) nuclei: 24 hr after microinjection; for p53 localization (% cells) both / p53 localization (% cells) cytoplasmic / p53 localization (% cells) nuclei: normal fibroblasts
# [2] = target: T2, XPB helicase within BTF2-TFIIH (Homo sapiens, UniProt P19447); assay: BTF2-TFIIH helicase assay, 3'→5' (XPB); format: biochemical; details: 6, 18, 120 ng wild-type p53 or 7, 21, 140 ng p53-273H
# T2 construct: XPD and XPB helicase activity within the native BTF2-TFIIH complex; endogenous in cells; host or cells: HeLa cell nuclear extract (HAP fraction)
# [3] = target: T3, XPD helicase within BTF2-TFIIH (Homo sapiens, UniProt P18074); assay: BTF2-TFIIH helicase assay, 5'→3' (XPD); format: biochemical; details: 6, 18, 120 ng wild-type p53 or 7, 21, 140 ng p53-273H
# T3 construct: XPD and XPB helicase activity within the native BTF2-TFIIH complex; endogenous in cells; host or cells: HeLa cell nuclear extract (HAP fraction)
# [4] = test system: XPB binding to mutant p53; assay: Peptide inhibition of XPB binding to mutant p53; set-up: species or system human; details: data not shown
# Method: as §1
# wild type p53 = target: T4, wild type p53 (Homo sapiens, UniProt P04637); assay: Binding of XPB proteins with deletion mutations to wild type p53; details: for binding of in vitro-translated XPB deletion mutant to GST-p53-WT: compared with wild-type XPB
# T4 construct: made in house; host or cells: Escherichia coli
# Method: FIGS. 3A, 3B and 3C. p53 binds to XPB helicase motifs Ia, II and III. […] Twenty percent of the original input was loaded in parallel as the references (lanes 1-3). B. In vitro-translated wild-type p53 protein was mixed with GSH-beads loaded with 4 μg of GST (lane 2), 2 μg of GST-XPB (WT) (lane 3), or 2 μg of GST-XPB (truncated XPB with 80-480 residues) (lane 4). Bound proteins were analyzed on SDS/PAGE. The original input (100%) was included as a reference (lane 1). C. Schematic representation of the full-length or the truncated XPB proteins used in binding assays. Black boxes in the bars are the putative helicase motifs conserved across the helicase superfamily. The small open bar from residues 354 to 496 covers the region which binds p53, with the closed bar in the right side covering motif III representing the higher affinity binding site. Helicase motif 1, residues 337-351; motif Ia, residues 361-374; motif II, residues 434-446; motif III, residues 462-480; motif IV, residues 576-592; motif V, residues 601-621; motif VI, residues 630-649.
# The binding assays were done in 500 μl IP buffer (50 mM Tris-HCl, pH8.0/120 mM NaCl/0.5% Nonidet P-40) containing the ^35S-labeled, in vitro translated proteins and GST fusion proteins loaded on GSH-beads at RT for 60 min. After washing five times with IP buffer, the bound proteins were released by boiling the beads in Laemmli buffer for 5 min, separated by SDS-PAGE, and visualized by fluolorography, as described in Wang, X. W., et al. (1994) Proc. Natl. Acad. Sci., USA 91:2230-2234.
# XPB contains 7 putative helicase motifs (FIG. 3C, black bars) which are conserved among the helicase superfamily and are indispensable for NER activity. […] The XPB mutants were produced a s described in Example 1, herein, and the binding studies with wild type p53 were carried out as described in Example 2, herein.
molecule,measurement,setting,value
"99: non relevant peptide from HBV, residues 100-115 of HBX [compound 99, reference compound]",competition of in vitro-translated XPB from GST-p53,binding of p53 to XPB,failed to do so; also recorded: enhance binding
"249^Ser: p53 mutant 249Ser, microinjected as CMV expression vector",effect of coinjected mutant p53 on induction of apoptosis by wt p53,[1],completely abolished
same,% apoptotic cells,[1],0(34) %
same,p53 localization (% cells) both,[1],17 % cells
same,p53 localization (% cells) cytoplasmic,[1],77 % cells
same,p53 localization (% cells) nuclei,[1],6 % cells
273^His: p53 mutated at codon 273 (Arg→His); expression vector or baculovirus-produced protein,effect of coinjected mutant p53 on induction of apoptosis by wt p53,[1],completely abolished
same,% apoptotic cells,[1],7(30) %
same,% apoptotic cells,[1]; listed as 273]^His,significantly reduced
same,p53 localization (% cells) both,[1],73 % cells
same,p53 localization (% cells) cytoplasmic,[1],0 % cells
same,p53 localization (% cells) nuclei,[1],27 % cells
same,inhibition of XPB helicase activity of BTF2-TFIIH,[2],No inhibition
same,inhibition of XPD helicase activity of BTF2-TFIIH,[3],No inhibition
"361 to 393: fragment of the c-terminus of wt p53, amino acid residues 361 to 393",induction of apoptosis by fragments of the c-terminus of wt p53,[1]; cells and delivery not stated for the fragments,can also induce apoptosis
"479: residues 479 to 493 of XPB (DLNFLIGPKLYEANW) [compound 479, reference compound]",competition of in vitro-translated XPB from GST-p53,binding of p53 to XPB,failed to do so; also recorded: enhance binding
"Peptide #464: amino acid residues 464 to 478 of XPB, helicase motif III region (LGLTATLVREDDKIV)",competition of in vitro-translated XPB from GST-p53,binding of p53 to XPB; listed as #464,efficiently competed; also recorded: capable of inhibiting the binding
same,inhibition of XPB binding to mutant p53,[4],did not inhibit
Peptide #p53cp: amino acid residues 367-387 of human wild type p53 (SHLKSKKGQSTSRHKKLMFKT),competition of in vitro-translated XPB from GST-p53,binding of p53 to XPB,competed; also recorded: capable of inhibiting the binding
"ΔC496: XPB deletion mutant terminating at residue 496 (helicase motifs IV, V and VI deleted) (protein) MGKRDRADRDKKKSRKRHYEDEEDDEEDAPGNDPQEAVPSAAGKQVDESGTKVDEYGAKDYRLQMPLKDDHTSRPLWVAPDGHIFLEAFSPVYKYAQDFLVAIAEPVCRPTHVHEYKLTAYSLYAAVSVGLQTSDITEYLRKLSKTGVPDGIMQFIKLCTVSYGKVKLVLKHNRYFVESCHPDVIQHLLQDPVIRECRLRNSEGEATELITETFTSKSAISKTAESSGGPSTSRVTDPQGKSDIPMDLFDFYEQMDKDEEEEEETQTVSFEVKQEMIEELQKRCIHLEYPLLAEYDFRNDSVNPDINIDLKPTAVLRPYQEKSLRKMFGNGRARSGVIVLPCGAGKSLVGVTAACTVRKRCLVLGNSAVSVEQWKAQFKMWSTIDDSQICRFTSDAKDKPIGCSVAISTYSMLGHTTKRSWEAERVMEWLKTQEWGLMILDEVHTIPAKMFRRVLTIVQAHCKLGLTATLVREDDKIVDLNFLIGPKLYEANWMEL",binding of in vitro-translated XPB deletion mutant to GST-p53-WT,wild type p53,did not alter the binding
"GST-XPB-80/480: GST fused to amino acids 80 to 480 of XPB (protein, UniProt P19447 80-480, looked up, fragment, GST fusion, GST fused to amino acids 80 to 480 of XPB) PDGHIFLEAFSPVYKYAQDFLVAIAEPVCRPTHVHEYKLTAYSLYAAVSVGLQTSDITEYLRKLSKTGVPDGIMQFIKLCTVSYGKVKLVLKHNRYFVESCHPDVIQHLLQDPVIRECRLRNSEGEATELITETFTSKSAISKTAESSGGPSTSRVTDPQGKSDIPMDLFDFYEQMDKDEEEEEETQTVSFEVKQEMIEELQKRCIHLEYPLLAEYDFRNDSVNPDINIDLKPTAVLRPYQEKSLRKMFGNGRARSGVIVLPCGAGKSLVGVTAACTVRKRCLVLGNSAVSVEQWKAQFKMWSTIDDSQICRFTSDAKDKPIGCSVAISTYSMLGHTTKRSWEAERVMEWLKTQEWGLMILDEVHTIPAKMFRRVLTIVQAHCKLGLTATLVREDDKIVDL",binding of in vitro-translated human wild-type p53 to GST-XPB protein,wild type p53; GSH-beads loaded with GST-XPB protein,significantly less binding
ΔC354: XPB deletion mutant terminating at residue 354 (helicase motifs Ia to VI deleted) (protein) MGKRDRADRDKKKSRKRHYEDEEDDEEDAPGNDPQEAVPSAAGKQVDESGTKVDEYGAKDYRLQMPLKDDHTSRPLWVAPDGHIFLEAFSPVYKYAQDFLVAIAEPVCRPTHVHEYKLTAYSLYAAVSVGLQTSDITEYLRKLSKTGVPDGIMQFIKLCTVSYGKVKLVLKHNRYFVESCHPDVIQHLLQDPVIRECRLRNSEGEATELITETFTSKSAISKTAESSGGPSTSRVTDPQGKSDIPMDLFDFYEQMDKDEEEEEETQTVSFEVKQEMIEELQKRCIHLEYPLLAEYDFRNDSVNPDINIDLKPTAVLRPYQEKSLRKMFGNGRARSGVIVLPCGAGKSLVGVTAA,binding of in vitro-translated XPB deletion mutant to GST-p53-WT,wild type p53,completely abolished the binding
